# Where two headings read alike, the source gives them in different places.
# How the values were obtained:
# [1] = tested on: Trypanosoma cruzi epimastigotes (Tulahuen 2 strain); assay: Anti-Trypanosoma cruzi activity: growth inhibition of epimastigotes (absorbance at 600 nm, day 5); format: cell-based; conditions: T. cruzi epimastigotes; for GI (%) / percentage of growth inhibition (PGI): test concentration not given
# Description: Trypanosoma cruzi epimastigotes (Tulahuen 2 strain) were grown at 28 °C in an axenic milieu (BHI-Tryptose) supplemented with 5% fetal bovine serum (FBS), as previously described. Cells from a 10-day-old culture (stationary phase) were inoculated into 50 mL of fresh culture milieu to give an initial concentration of 1 × 10^6 cells per mL. Cell growth was followed by measuring the absorbance of the culture at 600 nm every day. Before inoculation, the milieu was supplemented with a given amount of the coumarin from a freshly prepared stock solution in DMSO (25 mM). The final concentration of DMSO in the culture medium never exceeded 0.4%, and the control was run in the presence of 0.4% DMSO and in the absence of drugs. […] Nifurtimox (Nfx) was used as the reference trypanocidal drug. The percentage of growth inhibition (PGI) was calculated as follows: PGI (%) = {1 - [(Ap - A0p) / (Ac - A0c)]} × 100, where Ap = […] of the culture containing the studied compound at day 5; […] = […] of the culture containing the studied compound just after addition of the inocula (day 0); Ac = […] of the culture in the absence of the studied compound (control) at day 5; […] = […] in the absence of the studied compound at day 0. […] At day 5, the absorbance of the culture was measured and related to the control.
# [2] = Trypanosoma cruzi, TULAHUEN, 120 h, read-out: IC50
Compound,IC50 ([1]; read-out: IC50) [µM],"IC50 [1, 2] [µM]",melting point [°C],GI (%) / percentage of growth inhibition (PGI) [1],IC50 [1]
O=c1cc(CNc2ccccc2)c2cc(Cl)ccc2o1 [9a],< 10,9.1 ± 1.6,187 to 188,,
Cc1ccc(NCc2cc(=O)oc3ccc(Cl)cc23)cc1 [9b],,> 100,201,< 20.7%,
O=c1cc(CNc2ccc(Cl)cc2)c2cc(Cl)ccc2o1 [9c],,> 100,205 to 207,< 20.4%,
COc1ccc(NCc2cc(=O)oc3ccc(Cl)cc23)cc1 [9e],,> 100,192 to 194,< 29.3%,
O=c1cc(CN2CCCCC2)c2cc(Cl)ccc2o1 [9i],,> 100,181 to 182,15.9 ± 0.9%,
O=c1cc(CN2CCNCC2)c2cc(Cl)ccc2o1 [9j],,> 31,> 300,< 23.6%,
O=c1cc(CN2CCS(=O)(=O)CC2)c2cc(Cl)ccc2o1 [9m],,> 25,162 to 164,< 59.9%,
Cc1ccc2oc(=O)cc(CNc3ccccc3)c2c1 [10a],,> 100,164 to 165,38.5 ± 2.6%,
Cc1ccc2oc(=O)cc(CNc3ccc(Br)cc3)c2c1 [10d],,> 100,178 to 179,< 33.1%,
Cc1ccc2oc(=O)cc(CN3CCNCC3)c2c1 [10j],,,> 300,Inactive,Inactive

# Now from value to molecule, other results behind:
IC50 ([1]; read-out: IC50) [µM],"IC50 [1, 2] [µM]",melting point [°C],Compound,GI (%) / percentage of growth inhibition (PGI) [1],IC50 [1]
,> 100,231 to 232,O=c1cc(CNc2ccc(Br)cc2)c2cc(Cl)ccc2o1 [9d],1.9 ± 0.8%,
,> 100,192 to 194,Cc1cc(C)cc(NCc2cc(=O)oc3ccc(Cl)cc23)c1 [9f],6.1 ± 1.3%,
,14.2 ± 1.9,200 to 201,CN(Cc1cc(=O)oc2ccc(Cl)cc12)c1ccccc1 [9g],,
,> 25,185 to 186,CN(Cc1cc(=O)oc2ccc(Cl)cc12)c1ccc(Cl)cc1 [9h],< 48.4%,
,> 100,177 to 178,O=c1cc(CN2CCOCC2)c2cc(Cl)ccc2o1 [9k],< 9.6%,
,> 100,152 to 153,O=c1cc(CN2CCSCC2)c2cc(Cl)ccc2o1 [9l],29 ± 0.4%,
,> 25,163 to 164,O=c1cc(CN2CCC(c3ccccc3)CC2)c2cc(Cl)ccc2o1 [9n],< 51.5%,
,> 100,188 to 189,Cc1ccc(NCc2cc(=O)oc3ccc(C)cc23)cc1 [10b],29.9 ± 0.9%,
,> 100,180 to 181,Cc1ccc2oc(=O)cc(CNc3ccc(Cl)cc3)c2c1 [10c],18.5 ± 1.8%,
,> 25,169 to 170,COc1ccc(NCc2cc(=O)oc3ccc(C)cc23)cc1 [10e],53.2 ± 1.3%,
,> 100,179 to 180,Cc1cc(C)cc(NCc2cc(=O)oc3ccc(C)cc23)c1 [10f],32.5 ± 0.9%,
,> 25,173 to 174,Cc1ccc2oc(=O)cc(CN(C)c3ccc(Cl)cc3)c2c1 [10h],< 59.2%,
,> 100,,Cc1ccc2oc(=O)cc(CN3CCCCC3)c2c1 [10i],< 15.9%,
,5 ± 1,,"CC1CS(=O)(=O)CCN1/N=C/c1ccc([N+](=O)[O-])o1 (centres unmarked) [Nifurtimox, reference compound]",,

# Reference: PMC6921407, “Novel coumarins active against Trypanosoma cruzi and toxicity assessment using the animal model Caenorhabditis elegans” (BMC Pharmacology & Toxicology, 2019)
